According to patent US11666597B2, “Water-activated mucoadhesive compositions to reduce intestinal absorption of nutrients” (The Brigham and Women's Hospital, Inc., priority 2015, dated 2023):

Columns and labels:
[1] = Aluminum release in simulated gastrointestinal fluids; format: physicochemical
[2] = Thickness of paste layer on mucus-coated cellulose nitrate membrane
Procedure: Five hundred milligrams of AF-LuCI (excess) was added onto mucus-coated cellulose nitrate membrane (disk shape with 2 cm diameter) and DDW (pH 5.5), SGF (pH 1.0), or SIF (pH 6.5) was added immediately. After AF-LuCI becomes a paste and flow to form a layer (3-5 minutes), supernatant was removed and the paste-coated membrane was quickly frozen in −80° C. freezer to measure the thickness. The thickness of the mucus-coated cellulose nitrate membrane without AF-LuCI was separately measured as a baseline.

[3] = Glucose barrier test on mucin-coated membrane in Franz cell; set-up: species or system porcine
Procedure: To examine the barrier properties of pastes formed from the new hydratable compositions in vitro, a mucin-coated membrane was prepared to mimic the mucus surface of the intestine. Specifically, a cellulose nitrate membrane (pore size: 0.2 μm, Whatman, Germany) was incubated in a 3% w/v porcine stomach mucin (SigmaAldrich, USA) solution in PBS (pH 7.4) and gently shaken for 2 hours at room temperature. The membrane was washed with distilled deionized water (DDW, pH 5.5) to remove the excess mucin solution. The mucin-coated membranes were used within 1 hour following preparation.
To measure the thickness of the mucin layer, the mucin-coated membrane was lyophilized and imaged using scanning electron microscope (SEM) and the thickness of randomly selected positions was examined (average mucin layer thickness: ˜100 μm). To test the nutrient barrier properties, 10 mg of sucralfate or AF-LuCI was added evenly to a mucin-coated membrane and vertically tilted for 1 minute. […]
The permeation tests were performed in triplicate for each material. The glucose concentration was measured using high performance liquid chromatography (HPLC, Agilent, USA) with an analytical C18 column (Zorbax Eclipse XDB-C18, Agilent). […]

[4] = Degree of polymerization of PAC by titration; format: physicochemical; conditions: native sucralfate
Procedure: Experiments were performed to determine the degree of polymerization in AF-LuCI by using the titration-based methods as described in Nail, S. L., White, J. L. & Hem, S. L. Structure of Aluminum Hydroxide Gel I: Initial Precipitate. Journal of Pharmaceutical Sciences 65, 1188-1191 (1976); and Hem, J. D. & Roberson, C. E. Form and stability of aluminum hydroxide complexes in dilute solution. Geol Surv Water-Supply Pap(US)(United States) (1967). The degree of polymerization of PACs in AF-LuCI and sucralfate molecule was determined using titration method based on the reversible protonation of hydroxo linkages in the PAC backbone. Approximately 10 mg of AF-LuCI were treated with 0.1N, 0.2N, 0.3N, 0.4N and 0.5N HCl solutions in different tubes. The samples were vortexed for 5 seconds followed by 1-hour incubation. The supernatant of each sample was then collected and the pH was measured using a pH meter. The same procedures were performed with sucralfate. The pH of the HCl solutions was measured as the control group and the difference between the control and the treated groups was calculated. The difference in pH corresponds to the proton consumption and the amount of hydroxo linkages that were then used to calculate the number of aluminum per molecule.

[5] = Dissolution in NaCl solutions; format: physicochemical; conditions: saturated NaCl solutions (~0.35 g/ml in water)
From the text: […] This is a characteristic behavior of liquid complex coacervate system (See Wang, Q. & Schlenoff, J. B. The Polyelectrolyte Complex/Coacervate Continuum. Macromolecules 47, 3108-3116 (2014); de Kruif, C. G., Weinbreck, F. & de Vries, R. Complex coacervation of proteins and anionic polysaccharides. Current Opinion in Colloid & Interface Science 9, 340-349 (2004); Veis, A. & Aranyi, C. PHASE SEPARATION IN POLYELECTROLYTE SYSTEMS. I. COMPLEX COACERVATES OF GELATIN. J. Phys. Chem. 64, 1203-1210 (1960)).

Sprague-Dawley (SD) rats = experiment: microCT imaging of coating in the GI tract after gavage; format: in vivo; conditions: gavage into the stomach, AF-LuCI 450 mg/kg rat, imaged after 1 hr
Procedure: Sprague-Dawley (SD) rats were gavaged into the stomach with hydrated AF-LuCI pastes and imaged using micro-computed tomography (microCT). AF-LuCI pastes could be visualized on gastro-intestinal tissues without additional contrast agents owing to the presence of aluminum. For these experiments, rats were fasted overnight and gavaged directly into the stomach with 450 mg/kg rat of AF-LuCI paste hydrated in 0.9 w/v % normal saline solution. After 1 hr and 5 hr, the rats were anesthetized using isoflurane and imaged using microCT. […] FIG. 18A is a coronal plane view of SD rats gavaged with AF-LuCI 1 hr before the imaging. AF-LuCI formed a layer in stomach, duodenum and proximal intestine. FIGS. 18B and 18C are 3-dimensional views of SD rats gavaged with AF-LuCI (FIG. 18B) 1 hr and (FIG. 18C) 5 hr before the microCT imaging. AF-LuCI is attached on stomach, duodenum and proximal intestine at least for 5 hrs after gavage while sucralfate only formed sparsely scattered aggregates on the healthy mucosa

[6] = system: normal Sprague-Dawley (SD) rats; experiment: OGTT with sucralfate; format: in vivo, rat
From the text: In contrast, sucralfate selectively binds to ulcerated mucosa where the bicarbonate secretion is malfunctioned (i.e. acidic), while on bicarbonate-neutralized healthy mucosa sucralfate forms loosely bound discrete solid aggregates attached on the surface rather than forming a continuous layer. […] The neutralized pH on mucus surfaces also compromised the barrier function of sucralfate due to the change of rheological properties.

[7] = native sucralfate, USP specification; cited from earlier work

With sucralfate the “release of original aluminum content” value ([1]; exposed to an acidic fluid, e.g. gastric fluid, for AF-LuCI relative to the aluminum content of commercial sucralfate) was “about 15.0 w/w %”, the release of aluminum ([1]; simulated gastric fluid (SGF, pH 1.0)) was 15 w/w % of total aluminum content and the thickness of layer ([2]; SGF (pH 1.0)) was about 250 μm. The layer formation ([2]; distilled water or SIF) was “did not form any layer”, the glucose penetration blocked ([3]; SGF, 10 mg on membrane, 120 g/L glucose, 5 minutes) was about 60% and the glucose blocked ([3]; applied on mucus-coated membrane in pH 1.0, then solution of pH 4.0 added) was 16.5%. The “number of aluminum ions per molecule (degree of polymerization of PAC)” value [4] was 56.1±3.0 aluminum per molecule, the fraction dissolved [5] was “Less than 5 w/w %” and the “layer formation in the GI tract (microCT)” value (Sprague-Dawley (SD) rats) was “did not form a layer”. The “area under curve (AUC) in OGTT versus saline treated group” value [6] was “no significant difference” and the “USP regulation on the aluminum content” value [7] was 15.5-18.5 w/w % of the total weight.
